Assay results reported in article PMC11555678, “Improved Broad Spectrum Antifungal Drug Synergies with Cryptomycin, a Cdc50-Inspired Antifungal Peptide” (ACS Infectious Diseases, 2024).
≈ marks a conversion by molar mass, not a printed value. Like-named read-outs stand apart in the source and are kept apart here.

Tests used:
C. neoformans Crm1^OE = test: microbe, parasite or virus in culture; format: cell-based, Cryptococcus neoformans; conditions: Cryptococcus neoformans, 48 h
How it was run: (§1)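 Testing follows the CLSI M27 protocol for yeasts: test compounds are diluted 2-fold serially in RPMI1640, and washed overnight cells are added at 5000 cfu/mL before 2 days' incubation at 37 °C.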

C. neoformans H99 [1] = test: microbe, parasite or virus in culture; format: cell-based, Cryptococcus neoformans; conditions: Cryptococcus neoformans, H99; compound alone; RPMI1640, 37 °C, 48 h; read-out: MIC
How it was run: as §1

C. neoformans MRL862 = test: microbe, parasite or virus in culture; format: cell-based, Cryptococcus neoformans; conditions: Cryptococcus neoformans, MRL862, 48 h
How it was run: as §1

C. neoformans apt1Δ = test: microbe, parasite or virus in culture; format: cell-based, Cryptococcus neoformans; conditions: Cryptococcus neoformans, 48 h
How it was run: as §1

C. neoformans apt2Δ = test: microbe, parasite or virus in culture; format: cell-based, Cryptococcus neoformans; conditions: Cryptococcus neoformans, 48 h
How it was run: as §1

C. neoformans apt3Δ = test: microbe, parasite or virus in culture; format: cell-based, Cryptococcus neoformans; conditions: Cryptococcus neoformans, 48 h
How it was run: as §1

C. neoformans apt4Δ = test: microbe, parasite or virus in culture; format: cell-based, Cryptococcus neoformans; conditions: Cryptococcus neoformans, 48 h
How it was run: as §1

C. neoformans cdc50Δ = test: microbe, parasite or virus in culture; format: cell-based, Cryptococcus neoformans; conditions: Cryptococcus neoformans, 48 h
How it was run: as §1

C. neoformans crm1Δ = test: microbe, parasite or virus in culture; format: cell-based, Cryptococcus neoformans; conditions: Cryptococcus neoformans, 48 h
How it was run: as §1

C. glabrata 2001 = test: microbe, parasite or virus in culture; format: cell-based, Candida glabrata; conditions: Nakaseomyces glabratus, 2001; compound alone; RPMI1640, 37 °C, 48 h; read-out: MIC
How it was run: as §1

C. glabrata FKS1-S629P = test: microbe, parasite or virus in culture; format: cell-based, Candida glabrata; conditions: Nakaseomyces glabratus, FKS1S629P, 48 h
How it was run: as §1

C. glabrata FKS2-S663P = test: microbe, parasite or virus in culture; format: cell-based, Candida glabrata; conditions: Nakaseomyces glabratus, FKS2S663P, 48 h
How it was run: as §1

C. albicans SC5413 [2] = test: microbe, parasite or virus in culture; format: cell-based, Candida albicans; conditions: Candida albicans, SC5413; compound alone; RPMI1640, 37 °C, 48 h; read-out: MIC
How it was run: as §1

A. fumigatus AF293 [3] = test: microbe, parasite or virus in culture; format: cell-based, Aspergillus fumigatus; conditions: Aspergillus fumigatus, AF293; compound alone; RPMI1640, 37 °C, 48 h; * = paradoxical growth observed (CAS); read-out: MIC
Method: (§2) All microdilution assays with fungi were carried out in accordance with CLSI protocols from M27 for yeasts and M38 for filamentous fungi, respectively, unless otherwise specified.[64],[65] Briefly, 96-well plates were charged with RPMI1640 media, with operating volume in the first column, 200 μL, and half operating volume, 100 μL, in the remaining wells. Drug stock solution in DMSO was aliquoted into the first well in each row. Half of the volume in the dosed well was serially diluted 2-fold until column 11. Column 11 was used as the negative growth control, and column 12 was used as the positive growth control. ON yeast cultures in YPD were washed twice in DD-H2O, resuspended in PBS, and adjusted to 5000 cfu/mL in RPMI. The 96-well plate was inoculated with 100 μL aliquots of cell suspension per well. Plates were incubated at 37 °C for 2 days.

C. neoformans H99 [4] = format: cell-based, Cryptococcus neoformans; conditions: for MIC of antifungal in combination with (FITC)KKOO / MIC of antifungal in combination with KKOO / MIC of antifungal in combination with KKOO-NH2: RPMI1640, 37 °C; for MIC of antifungal in combination with KKOO / MIC of antifungal in combination with KKOO-NH2: 48 h
Method: as §2, with “Plates were incubated at 37 °C for 2 days.” left out
(§3) To assess drug synergy, the initial media charged to the plate contained the peptide at twice the final operating concentration; the remaining processing steps were identical to the MIC experiment. Upon addition of 100 μL of inoculant, the final operating concentration was achieved. Control MIC plates were prepared alongside drug synergy plates to account for the day-to-day variability in any individual MIC. FIC index is computed using eq 1. All MIC assays and drug synergy assays were completed with two technical replicates per 96-well plate and a minimum of two biological replicates per drug combination. If a difference in MIC between the two technical replicates on the plate were observed, only the higher concentration was reported as the MIC to reduce the possibility of type 1 error (false positive) [drawing 1] 1

C. albicans SC5413 [5] = format: cell-based, Candida albicans; conditions: RPMI1640, 37 °C, 48 h; for MIC of antifungal in combination with KKOO: azole MICs unclear (intermediate phenotype); for MIC of antifungal in combination with KKOO-NH2: azole MICs could not be determined (intermediate phenotype)
Method: as §2, §3

C. auris B11245 = format: cell-based, Candida auris; conditions: RPMI1640, 37 °C, 48 h, CAS: paradoxical growth; for MIC of antifungal in combination with KKOO: MIC = <20% growth; for MIC of antifungal in combination with KKOO-NH2: MIC = well with <20% growth
Method: as §2, §3

A. fumigatus AF293 [6] = test: Drug synergy (MIC in peptide-supplemented media); format: cell-based, Aspergillus fumigatus; conditions: RPMI1640, 37 °C, 48 h, CAS: paradoxical growth; for MIC of antifungal in combination with KKOO: MIC = <20% growth; for MIC of antifungal in combination with KKOO-NH2: MIC = well with <20% growth
Method: as §2, §3

## C[C@@H]1[C@H](O)[C@@H](C)/C=C/C=C/C=C/C=C/C=C/C=C/C=C/[C@H](O[C@@H]2O[C@H](C)[C@@H](O)[C@H](N)[C@@H]2O)C[C@@H]2O[C@](O)(C[C@@H](O)C[C@@H](O)[C@H](O)CC[C@@H](O)C[C@@H](O)CC(=O)O[C@H]1C)C[C@H](O)[C@H]2C(=O)O [AMB, amphotericin B]
C. neoformans Crm1^OE
  MIC: 0.5 µg/mL (≈ 0.541 µM)
C. neoformans H99 [1]
  MIC: 0.5 µg/mL (≈ 0.541 µM)
C. neoformans MRL862
  MIC: 0.125 µg/mL (≈ 0.135 µM)
C. neoformans apt1Δ
  MIC: 0.5 µg/mL (≈ 0.541 µM)
C. neoformans apt2Δ
  MIC: 0.25 µg/mL (≈ 0.271 µM)
C. neoformans apt3Δ
  MIC: 0.5 µg/mL (≈ 0.541 µM)
C. neoformans apt4Δ
  MIC: 0.25 µg/mL (≈ 0.271 µM)
C. neoformans cdc50Δ
  MIC: 0.5 µg/mL (≈ 0.541 µM)
C. neoformans crm1Δ
  MIC: 0.5 µg/mL (≈ 0.541 µM)
C. glabrata 2001
  MIC: 1 µg/mL (≈ 1.08 µM)
C. glabrata FKS1-S629P
  MIC: 1 µg/mL (≈ 1.08 µM)
C. glabrata FKS2-S663P
  MIC: 1 µg/mL (≈ 1.08 µM)
C. albicans SC5413 [2]
  MIC: 1 µg/mL (≈ 1.08 µM)
A. fumigatus AF293 [3]
  MIC: 1 µg/mL (≈ 1.08 µM)
C. neoformans H99 [4]; +0 μg/mL (FITC)KKOO
  MIC of antifungal in combination with (FITC)KKOO: 0.5 µg/mL
C. neoformans H99 [4]; +0 μg/mL KKOO (control)
  MIC of antifungal in combination with KKOO: 0.5 µg/mL
C. neoformans H99 [4]; +0 μg/mL KKOO-NH2 (control)
  MIC of antifungal in combination with KKOO-NH2: 0.5 µg/mL
C. neoformans H99 [4]; +1 μg/mL KKOO-NH2
  MIC of antifungal in combination with KKOO-NH2: 0.062 µg/mL
C. neoformans H99 [4]; +1 μg/mL KKOO
  MIC of antifungal in combination with KKOO: 0.25 µg/mL
C. neoformans H99 [4]; +2 μg/mL KKOO-NH2
  MIC of antifungal in combination with KKOO-NH2: 0.062 µg/mL
C. neoformans H99 [4]; +2 μg/mL KKOO
  MIC of antifungal in combination with KKOO: 0.062 µg/mL
C. neoformans H99 [4]; +4 μg/mL (FITC)KKOO
  MIC of antifungal in combination with (FITC)KKOO: 0.125 µg/mL
C. neoformans H99 [4]; +4 μg/mL KKOO-NH2
  MIC of antifungal in combination with KKOO-NH2: 0.031 µg/mL
C. neoformans H99 [4]; +4 μg/mL KKOO
  MIC of antifungal in combination with KKOO: 0.062 µg/mL
C. neoformans H99 [4]; +8 μg/mL (FITC)KKOO
  MIC of antifungal in combination with (FITC)KKOO: 0.062 µg/mL
C. neoformans H99 [4]; +8 μg/mL KKOO
  MIC of antifungal in combination with KKOO: 0.062 µg/mL
C. neoformans H99 [4]; in the presence of 1 μg/mL KKOO-NH2, 48 h
  reduction of MIC of antifungal: 8 fold
C. neoformans H99 [4]; in the presence of 4 μg/mL (FITC)KKOO
  reduction of MIC of antifungal: 4 fold
C. albicans SC5413 [5]; +0 μg/mL KKOO (control)
  MIC of antifungal in combination with KKOO: 1 µg/mL
C. albicans SC5413 [5]; +0 μg/mL KKOO-NH2 (control)
  MIC of antifungal in combination with KKOO-NH2: 1 µg/mL
C. albicans SC5413 [5]; +1 μg/mL KKOO-NH2
  MIC of antifungal in combination with KKOO-NH2: 0.5 µg/mL
C. albicans SC5413 [5]; +1 μg/mL KKOO
  MIC of antifungal in combination with KKOO: 0.5 µg/mL
C. albicans SC5413 [5]; +2 μg/mL KKOO-NH2
  MIC of antifungal in combination with KKOO-NH2: 0.25 µg/mL
C. albicans SC5413 [5]; +2 μg/mL KKOO
  MIC of antifungal in combination with KKOO: 0.25 µg/mL
C. albicans SC5413 [5]; +4 μg/mL KKOO-NH2
  MIC of antifungal in combination with KKOO-NH2: 0.25 µg/mL
C. albicans SC5413 [5]; +4 μg/mL KKOO
  MIC of antifungal in combination with KKOO: 0.125 µg/mL
C. albicans SC5413 [5]; +8 μg/mL KKOO
  MIC of antifungal in combination with KKOO: 0.125 µg/mL
C. auris B11245; +0 μg/mL KKOO (control)
  MIC of antifungal in combination with KKOO: 1 µg/mL
C. auris B11245; +0 μg/mL KKOO-NH2 (control)
  MIC of antifungal in combination with KKOO-NH2: 1 µg/mL
C. auris B11245; +1 μg/mL KKOO-NH2
  MIC of antifungal in combination with KKOO-NH2: 0.5 µg/mL
C. auris B11245; +1 μg/mL KKOO
  MIC of antifungal in combination with KKOO: 0.5 µg/mL
C. auris B11245; +2 μg/mL KKOO-NH2
  MIC of antifungal in combination with KKOO-NH2: 0.5 µg/mL
C. auris B11245; +2 μg/mL KKOO
  MIC of antifungal in combination with KKOO: 0.5 µg/mL
C. auris B11245; +4 μg/mL KKOO-NH2
  MIC of antifungal in combination with KKOO-NH2: 0.25 µg/mL
C. auris B11245; +4 μg/mL KKOO
  MIC of antifungal in combination with KKOO: 0.25 µg/mL
A. fumigatus AF293 [6]; +0 μg/mL KKOO (control)
  MIC of antifungal in combination with KKOO: 1 µg/mL
A. fumigatus AF293 [6]; +0 μg/mL KKOO-NH2 (control)
  MIC of antifungal in combination with KKOO-NH2: 1 µg/mL
A. fumigatus AF293 [6]; +1 μg/mL KKOO-NH2
  MIC of antifungal in combination with KKOO-NH2: 0.5 µg/mL
A. fumigatus AF293 [6]; +1 μg/mL KKOO
  MIC of antifungal in combination with KKOO: 0.25 µg/mL
A. fumigatus AF293 [6]; +2 μg/mL KKOO-NH2
  MIC of antifungal in combination with KKOO-NH2: 0.25 µg/mL
A. fumigatus AF293 [6]; +2 μg/mL KKOO
  MIC of antifungal in combination with KKOO: 0.25 µg/mL
A. fumigatus AF293 [6]; +4 μg/mL KKOO-NH2
  MIC of antifungal in combination with KKOO-NH2: 0.5 µg/mL
A. fumigatus AF293 [6]; +4 μg/mL KKOO
  MIC of antifungal in combination with KKOO: 0.25 µg/mL
A. fumigatus AF293 [6]; +8 μg/mL KKOO-NH2
  MIC of antifungal in combination with KKOO-NH2: 0.5 µg/mL
